Source: ChEMBL document CHEMBL1201862, “PubChem BioAssay data set” (2004)
The source made the active and inactive calls. Cut-off read from the data, not from the text of the source, for most assays here: actives have a measured EC50 and inactives only a lower limit.

Key:
[1] = molecular target: Large T antigen (Simian virus 40, UniProt P03070); type: functional, Betapolyomavirus macacae;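 note: Confirmatory-stage PubChem screen for compounds that inhibit SV40 T antigen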
[2] = NIH-3T3 fibroblast cytotoxicity, dose response, cytotoxicity control, cell-based, fluorescence, Alamar Blue, secondary assay (AID 2327); type: functional;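 note: NIH-3T3 mouse fibroblasts cultured with fluconazole at 8 µg/mL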
[3] = C. albicans growth with fluconazole, confirmation, fluorescence, retest (AID 2467); type: functional, cell-based
[4] = tested on: Streptococcus sp. 'group A'; test: growth inhibition of control SK(-) GAS strain, dose response, counter-screen for streptokinase expression inhibitor project, luminescence, kanamycin, BacTiterGlo, confirmation (AID 1900); type: functional, organism-based
[5] = molecular target: T1, Streptokinase A (Streptococcus pyogenes serotype M1, UniProt P10520); test: S. pyogenes streptokinase expression inhibitors, potency, dose response, plasminogen activation absorbance, OD405 (AID 1914); type: functional, Streptococcus pyogenes M1 GAS;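 note: secreted streptokinase activity via plasminogen activation per viability signal from cell pellet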
T1 sequence (P10520 whole entry): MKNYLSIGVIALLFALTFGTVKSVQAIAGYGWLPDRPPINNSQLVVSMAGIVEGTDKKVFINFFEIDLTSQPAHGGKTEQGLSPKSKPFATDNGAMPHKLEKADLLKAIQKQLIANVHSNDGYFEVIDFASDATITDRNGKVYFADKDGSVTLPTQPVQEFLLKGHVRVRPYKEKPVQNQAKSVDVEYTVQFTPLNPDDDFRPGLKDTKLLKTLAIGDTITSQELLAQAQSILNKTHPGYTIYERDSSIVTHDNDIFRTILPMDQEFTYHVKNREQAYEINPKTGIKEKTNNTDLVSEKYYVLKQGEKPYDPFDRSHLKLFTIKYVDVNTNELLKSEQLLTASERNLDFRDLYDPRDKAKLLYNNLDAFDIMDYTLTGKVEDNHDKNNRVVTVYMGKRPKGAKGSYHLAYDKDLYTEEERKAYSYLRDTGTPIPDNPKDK

[6] = tested on: Streptococcus; test: Group A Streptococcus viability loss, dose response, counter-screen for streptokinase expression inhibitor project, luminescence, BacTiterGlo (AID 1915); type: functional, organism-based;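 note: potency for reduction of bacterial viability or growth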
[7] = molecular target: T2, Heat shock factor protein 1 (Mus musculus, UniProt P38532); test: HSF1 potentiators in luciferase reporter cells, confirmation, cell-based, NIH3T3, luminescence, dose retest (AID 435004); type: functional;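 note: stress induced by proteasome inhibitor MG132 added 30 min after compound; luciferase reporter driven by HSF1 response element in NIH3T3 cells; actives raise luminescence as potentiators of the MG132 stress response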
T2 sequence (P38532 whole entry): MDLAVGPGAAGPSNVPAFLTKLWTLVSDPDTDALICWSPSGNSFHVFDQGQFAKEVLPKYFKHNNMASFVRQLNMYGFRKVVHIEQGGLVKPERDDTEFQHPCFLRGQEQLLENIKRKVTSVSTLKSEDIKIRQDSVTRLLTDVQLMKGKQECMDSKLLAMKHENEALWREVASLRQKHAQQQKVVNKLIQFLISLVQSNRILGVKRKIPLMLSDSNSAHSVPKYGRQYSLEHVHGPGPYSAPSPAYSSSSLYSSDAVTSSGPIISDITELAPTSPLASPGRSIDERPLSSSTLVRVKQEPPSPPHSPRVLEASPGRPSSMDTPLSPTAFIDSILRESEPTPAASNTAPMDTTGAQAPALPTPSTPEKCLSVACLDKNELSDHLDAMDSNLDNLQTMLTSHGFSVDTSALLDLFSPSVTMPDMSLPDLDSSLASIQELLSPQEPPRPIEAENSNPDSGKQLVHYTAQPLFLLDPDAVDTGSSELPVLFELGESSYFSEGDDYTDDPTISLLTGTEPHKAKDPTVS

[8] = molecular target: T3, Rac GTPase-activating protein 1 (Homo sapiens, UniProt Q9H0H5); test: MgcRacGAP GTPase-activating activity inhibitors, confirmation, biochemical, ADP Hunter fluorescence, primary and confirmatory (AID 624330); type: functional
T3 sequence (Q9H0H5 whole entry): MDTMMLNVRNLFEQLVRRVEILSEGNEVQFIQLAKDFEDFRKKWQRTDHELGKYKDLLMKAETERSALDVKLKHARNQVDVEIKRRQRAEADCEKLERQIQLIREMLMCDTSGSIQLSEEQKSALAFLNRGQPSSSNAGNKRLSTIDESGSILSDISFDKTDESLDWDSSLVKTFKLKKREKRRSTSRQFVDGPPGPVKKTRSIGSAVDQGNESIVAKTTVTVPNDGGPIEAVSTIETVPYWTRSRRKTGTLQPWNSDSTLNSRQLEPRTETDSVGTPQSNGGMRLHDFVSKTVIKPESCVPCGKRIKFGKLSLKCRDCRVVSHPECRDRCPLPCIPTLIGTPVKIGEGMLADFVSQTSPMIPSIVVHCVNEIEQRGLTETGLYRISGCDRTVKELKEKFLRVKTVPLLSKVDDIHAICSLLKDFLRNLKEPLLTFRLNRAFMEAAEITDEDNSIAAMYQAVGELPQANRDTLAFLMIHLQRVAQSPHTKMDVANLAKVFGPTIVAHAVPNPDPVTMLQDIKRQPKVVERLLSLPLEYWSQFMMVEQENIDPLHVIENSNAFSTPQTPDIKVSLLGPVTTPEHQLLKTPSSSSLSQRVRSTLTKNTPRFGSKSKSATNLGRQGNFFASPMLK

[9] = inhibitors of firefly luciferase expression or activity, dose response, H4 neuroglioma cells, luminescence (AID 1990); type: functional, cell-based
[10] = Luminescence Cell-Based Dose Response HTS to Identify Inhibitors of 5'UTR Stem-Loop Driven Prion Protein mRNA Translation in H4 Neuroglioblastoma Cells. [Related pubchem assays: 1827 (Project Summary), 1813 (Primary HTS)]; type: functional
[11] = inhibitors of SNCA 5'UTR-driven reporter translation, confirmation, H4 neuroglioma cells, luminescence (AID 1988); type: functional, cell-based
[12] = inhibitors of intracellular T. cruzi replication, confirmation, NIH3T3 host cells, beta-gal luminescence (AID 2044); type: functional, cell-based;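 note: intracellular parasites grown in NIH/3T3 mouse fibroblasts as host cells; luminescent beta-galactosidase reporter signal from transgenic T. cruzi replicating inside host cells; inhibitors lower the luminescence signal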
[13] = cytotoxicity toward NIH3T3 fibroblasts, dose response, counter-screen, cell-based, ATP luminescence, mouse fibroblasts (AID 2010); type: functional;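 note: cells exposed to compound for about 90 hours before reading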
[14] = Luminescence Cell-Based Dose Retest to Confirm Inhibitors of Cancer Stem Cells. [Related pubchem assays (depositor defined):AID2717, AID2721]; type: functional; details: Homo sapiens
[15] = molecular target: T4, Replicative DNA helicase DnaB (Mycobacterium tuberculosis, UniProt P9WMR3); test: DnaB intein splicing inhibitors, dose response, biochemical, cell-free fluorescence (AID 449749); type: functional
T4 sequence (P9WMR3 whole entry): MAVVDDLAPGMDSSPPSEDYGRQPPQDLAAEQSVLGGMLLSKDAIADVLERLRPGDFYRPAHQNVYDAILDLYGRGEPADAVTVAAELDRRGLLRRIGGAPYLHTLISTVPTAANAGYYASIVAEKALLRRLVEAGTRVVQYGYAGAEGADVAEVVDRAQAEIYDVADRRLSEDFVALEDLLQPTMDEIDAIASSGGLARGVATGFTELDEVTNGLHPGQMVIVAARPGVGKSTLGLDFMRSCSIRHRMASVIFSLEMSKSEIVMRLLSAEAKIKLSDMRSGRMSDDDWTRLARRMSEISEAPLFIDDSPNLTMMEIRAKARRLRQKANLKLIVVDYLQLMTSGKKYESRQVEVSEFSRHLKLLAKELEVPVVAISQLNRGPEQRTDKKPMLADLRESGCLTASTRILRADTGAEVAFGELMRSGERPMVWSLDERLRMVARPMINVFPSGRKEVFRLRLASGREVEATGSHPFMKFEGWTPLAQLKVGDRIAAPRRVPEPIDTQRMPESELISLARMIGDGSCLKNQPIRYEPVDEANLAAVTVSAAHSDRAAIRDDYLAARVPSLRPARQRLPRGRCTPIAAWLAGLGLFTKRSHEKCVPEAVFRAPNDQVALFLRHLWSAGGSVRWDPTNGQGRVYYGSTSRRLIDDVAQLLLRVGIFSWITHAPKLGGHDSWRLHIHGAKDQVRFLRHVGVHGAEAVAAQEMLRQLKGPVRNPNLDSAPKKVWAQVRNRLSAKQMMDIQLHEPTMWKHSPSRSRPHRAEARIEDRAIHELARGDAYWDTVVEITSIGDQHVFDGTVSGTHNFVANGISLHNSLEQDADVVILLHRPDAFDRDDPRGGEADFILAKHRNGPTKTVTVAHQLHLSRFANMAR

[16] = molecular target: T5, Protein RecA (Mycobacterium tuberculosis, UniProt P9WHJ3); test: Fluorescence Cell-Free Homogeneous Dose Retest to Identify Inhibitors of RecA-Intein Splicing Activity. [Related pubchem assays (depositor defined):AID2097, AID2223, AID489010, AID492950]; type: functional
T5 sequence (P9WHJ3 whole entry): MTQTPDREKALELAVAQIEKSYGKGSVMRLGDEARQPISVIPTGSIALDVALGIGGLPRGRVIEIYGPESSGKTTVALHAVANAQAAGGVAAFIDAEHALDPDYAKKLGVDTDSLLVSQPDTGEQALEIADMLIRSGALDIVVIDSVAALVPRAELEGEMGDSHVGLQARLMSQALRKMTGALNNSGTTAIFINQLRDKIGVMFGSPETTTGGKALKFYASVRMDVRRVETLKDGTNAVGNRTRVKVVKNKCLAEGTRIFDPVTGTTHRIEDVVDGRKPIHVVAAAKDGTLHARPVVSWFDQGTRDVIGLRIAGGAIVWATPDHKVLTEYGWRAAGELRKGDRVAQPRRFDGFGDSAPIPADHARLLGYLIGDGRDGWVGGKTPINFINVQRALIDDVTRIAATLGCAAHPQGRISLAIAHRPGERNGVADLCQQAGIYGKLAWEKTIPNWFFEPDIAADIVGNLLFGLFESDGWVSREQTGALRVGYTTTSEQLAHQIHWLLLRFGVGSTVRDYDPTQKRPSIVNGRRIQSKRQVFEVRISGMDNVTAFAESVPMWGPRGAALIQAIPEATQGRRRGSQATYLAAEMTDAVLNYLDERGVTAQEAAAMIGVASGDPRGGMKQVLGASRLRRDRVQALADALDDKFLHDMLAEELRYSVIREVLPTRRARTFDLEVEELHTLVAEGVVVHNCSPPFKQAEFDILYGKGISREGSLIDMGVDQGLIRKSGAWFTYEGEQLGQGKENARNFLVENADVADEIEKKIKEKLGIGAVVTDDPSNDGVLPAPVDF

[17] = tested on: INS1; test: beta cell apoptosis inhibitors, cytokine rescue, dose response, luminescence, retest (AID 449756); type: functional, cell-based; details: Rattus norvegicus;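 note: cell death triggered by IL-1 beta plus TNF-alpha plus IFN-gamma mixture; protective hits raise ATP signal compared with cytokine alone wells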
[18] = cells; type: functional

Large T antigen, sequence (P03070 whole entry): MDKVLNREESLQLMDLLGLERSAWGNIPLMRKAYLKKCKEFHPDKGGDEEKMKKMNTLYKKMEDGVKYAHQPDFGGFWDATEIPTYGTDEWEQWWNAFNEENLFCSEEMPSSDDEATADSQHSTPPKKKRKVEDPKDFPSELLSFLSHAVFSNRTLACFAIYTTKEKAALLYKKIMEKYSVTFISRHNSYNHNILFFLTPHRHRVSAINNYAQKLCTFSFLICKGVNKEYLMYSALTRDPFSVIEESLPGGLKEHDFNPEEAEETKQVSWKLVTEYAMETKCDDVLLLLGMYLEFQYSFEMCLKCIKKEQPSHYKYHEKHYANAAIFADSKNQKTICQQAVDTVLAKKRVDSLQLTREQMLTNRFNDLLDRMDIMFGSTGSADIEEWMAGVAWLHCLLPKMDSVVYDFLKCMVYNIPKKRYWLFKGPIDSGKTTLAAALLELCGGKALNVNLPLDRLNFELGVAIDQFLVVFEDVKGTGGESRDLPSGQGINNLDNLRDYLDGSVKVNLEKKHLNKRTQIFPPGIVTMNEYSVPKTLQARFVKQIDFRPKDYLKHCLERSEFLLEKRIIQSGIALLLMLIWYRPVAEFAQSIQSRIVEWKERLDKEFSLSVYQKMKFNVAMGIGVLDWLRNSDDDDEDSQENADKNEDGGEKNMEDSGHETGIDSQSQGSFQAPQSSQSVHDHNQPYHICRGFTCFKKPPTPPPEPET

SMILES: O=C1ON=C(c2ccccc2)/C1=C\c1ccco1
- IC50 [1]: 28.2 µM (active)

SMILES: CC(=O)Oc1cc2oc(=O)cc(C)c2cc1OC(C)=O
- IC50 [1]: 21.4 µM (active)

SMILES: COc1ccc(C)cc1N=C(S)NNC(=O)c1c(Br)cnn1C
- EC50 [2]: > 150 µM (inactive)
- EC50 [3]: 1.45 µM (active)

SMILES: CCOC(=O)c1[nH]c2ccc(F)cc2c1NC(=O)c1ccccc1C(=O)O
- EC50 [2]: > 150 µM (inconclusive)
- EC50 [4]: > 150 µM (not active)
- EC50 [5]: > 150 µM (not active)
- EC50 [3]: > 38 µM (not active)
- EC50 [6]: > 150 µM (not active)

SMILES: COc1ccc2c(c1)C(=O)Cc1ccccc1O2
- IC50 [1]: 86.7 µM (active)

SMILES: CN1C(=O)C2C(c3ccc(N(C)C)cc3)=NN(Cc3ccccc3)C2C1=O (stereo not drawn)
- IC50 [1]: 19 µM (active)
- EC50 [7]: 40.3 µM (active)
- IC50 [8]: 43 µM (active)

SMILES: CCCOC(c1ccccc1)(c1ccc(C(F)(F)F)cc1)C(Oc1nc(C)cc(C)n1)C(=O)O (stereo not drawn)
- EC50 [2]: > 160 µM (inactive)
- EC50 [9]: 12.4 µM (active)
- EC50 [10]: 11.4 µM (active)
- EC50 [11]: 8.08 µM (active)
- EC50 [3]: 1.91 µM (active)

SMILES: Cc1c(NC(=O)C(C)N2CC(C)OC(C)C2)c(=O)n(-c2ccccc2)n1C (stereo not drawn)
- EC50 [7]: > 260 µM (inactive)

SMILES: CCCCn1c(SCC(=O)Nc2cccc(OC)c2)nc2ccc(N3CCOCC3)cc2c1=O
- EC50 [2]: 141 µM (active)
- EC50 [3]: > 38 µM (not active)

SMILES: CC(C)(C)c1ccc(/C=C(\c2nc3ccccc3[nH]2)S(=O)(=O)c2ccccc2)cc1
- EC50 [12]: 0.995 µM (active)
- EC50 [13]: > 60 µM (not active)
- AC50 [14]: 1.36 µM (active)
- AC50 [15]: 2.19 µM (active)
- EC50 [16]: 2.77 µM (active)
- AC50 [17]: 6.71 µM (active)

SMILES: Cc1cc(C(=O)NNc2ccc(Cl)cc2)no1
- EC50 [2]: 2.59 µM (active)
- EC50 [3]: 0.819 µM (active)
- AC50 [14]: 1.35 µM (active)

SMILES: COCCSc1nnc(NC(=O)C2CC(=O)N(c3ccc(C)cc3)C2)s1 (stereo not drawn)
- EC50 [2]: > 160 µM (inactive)
- EC50 [3]: > 38 µM (not active)

SMILES: Cc1ccccc1-n1nnc2c(=O)oc3ccccc3c21
- EC50 [7]: > 260 µM (inactive)
- IC50 [18]: 1.13 µM (active)

SMILES: COc1ccc(S(=O)(=O)N[C@@H](Cc2ccccc2)C(=O)N2CC[C@@]3(O)CCCC[C@H]3C2)cc1
- EC50 [7]: > 260 µM (inactive)

SMILES: O=C(Nc1cccc(Cl)c1)C1CCCN(S(=O)(=O)c2ccc(F)cc2)C1 (stereo not drawn)
- EC50 [7]: > 260 µM (inactive)

SMILES: CC(=O)NCCc1nc2ccccc2n1CCOc1cccc(C)c1
- EC50 [7]: > 260 µM (inactive)

SMILES: Oc1ccc(/C=N/Nc2ccc(Cl)nn2)cc1O
- IC50 [1]: 8.16 µM (active)

SMILES: CN1CCN(/N=C/c2c[nH]c3ccccc23)CC1
- IC50 [1]: 15.4 µM (active)

SMILES: O=C1/C(=N/n2cnnc2)c2ccccc2N1Cc1ccccc1
- IC50 [1]: 24.8 µM (active)

SMILES: COc1cc(/C=N/NC(=O)c2ccoc2C)cc(OC)c1O
- IC50 [1]: 33.9 µM (active)

SMILES: COc1cc(/C=N/NC(=O)CC2C(=O)NN=C2C)ccc1O (stereo not drawn)
- IC50 [1]: 11.5 µM (active)
- IC50 [8]: 53.7 µM (active)
